Results from patent US9376436B2, “2-(pyridin-2yl)-1, 7-diaza-spiro [4.4] nonane-6-one compound as voltage-gated sodium channels modulators” (CONVERGENCE PHARMACEUTICALS LIMITED, priority 2011, dated 2016).
Structures can show the parent of a compound that is named as a salt. Where two headings read alike, the source gives them in different places.

Target: T1, hNaV1.7 (Homo sapiens, UniProt Q15858)
T1 construct: expressed in transfected cells; host or cells: HEK293
Assay: QPatch NaV1.7 assay (whole-cell patch clamp, QPatch16x)
Type: cell-based
Settings: HEK293-hNaV1.7 cells
Method in brief: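 HEK293 cells expressing hNaV1.7 recorded by automated whole-cell patch clamp (CsF internal, pH 7.3). Peak currents from 20 ms steps to 0 mV measured at holding potentials of −90 mV and V1/2 SSI; four-point cumulative concentrations, 120 s each, Hill fits gave pIC50 at each potential.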

[1] = holding voltage V1/2 SSI (half of channels inactivated), read-out: QP Nav1.7 SSI vhalf pIC50 (converted)
[2] = holding voltage −90 mV (most channels closed), read-out: QP Nav1.7 −90 mV pIC50 (converted)

T1 sequence (Q15858 whole entry): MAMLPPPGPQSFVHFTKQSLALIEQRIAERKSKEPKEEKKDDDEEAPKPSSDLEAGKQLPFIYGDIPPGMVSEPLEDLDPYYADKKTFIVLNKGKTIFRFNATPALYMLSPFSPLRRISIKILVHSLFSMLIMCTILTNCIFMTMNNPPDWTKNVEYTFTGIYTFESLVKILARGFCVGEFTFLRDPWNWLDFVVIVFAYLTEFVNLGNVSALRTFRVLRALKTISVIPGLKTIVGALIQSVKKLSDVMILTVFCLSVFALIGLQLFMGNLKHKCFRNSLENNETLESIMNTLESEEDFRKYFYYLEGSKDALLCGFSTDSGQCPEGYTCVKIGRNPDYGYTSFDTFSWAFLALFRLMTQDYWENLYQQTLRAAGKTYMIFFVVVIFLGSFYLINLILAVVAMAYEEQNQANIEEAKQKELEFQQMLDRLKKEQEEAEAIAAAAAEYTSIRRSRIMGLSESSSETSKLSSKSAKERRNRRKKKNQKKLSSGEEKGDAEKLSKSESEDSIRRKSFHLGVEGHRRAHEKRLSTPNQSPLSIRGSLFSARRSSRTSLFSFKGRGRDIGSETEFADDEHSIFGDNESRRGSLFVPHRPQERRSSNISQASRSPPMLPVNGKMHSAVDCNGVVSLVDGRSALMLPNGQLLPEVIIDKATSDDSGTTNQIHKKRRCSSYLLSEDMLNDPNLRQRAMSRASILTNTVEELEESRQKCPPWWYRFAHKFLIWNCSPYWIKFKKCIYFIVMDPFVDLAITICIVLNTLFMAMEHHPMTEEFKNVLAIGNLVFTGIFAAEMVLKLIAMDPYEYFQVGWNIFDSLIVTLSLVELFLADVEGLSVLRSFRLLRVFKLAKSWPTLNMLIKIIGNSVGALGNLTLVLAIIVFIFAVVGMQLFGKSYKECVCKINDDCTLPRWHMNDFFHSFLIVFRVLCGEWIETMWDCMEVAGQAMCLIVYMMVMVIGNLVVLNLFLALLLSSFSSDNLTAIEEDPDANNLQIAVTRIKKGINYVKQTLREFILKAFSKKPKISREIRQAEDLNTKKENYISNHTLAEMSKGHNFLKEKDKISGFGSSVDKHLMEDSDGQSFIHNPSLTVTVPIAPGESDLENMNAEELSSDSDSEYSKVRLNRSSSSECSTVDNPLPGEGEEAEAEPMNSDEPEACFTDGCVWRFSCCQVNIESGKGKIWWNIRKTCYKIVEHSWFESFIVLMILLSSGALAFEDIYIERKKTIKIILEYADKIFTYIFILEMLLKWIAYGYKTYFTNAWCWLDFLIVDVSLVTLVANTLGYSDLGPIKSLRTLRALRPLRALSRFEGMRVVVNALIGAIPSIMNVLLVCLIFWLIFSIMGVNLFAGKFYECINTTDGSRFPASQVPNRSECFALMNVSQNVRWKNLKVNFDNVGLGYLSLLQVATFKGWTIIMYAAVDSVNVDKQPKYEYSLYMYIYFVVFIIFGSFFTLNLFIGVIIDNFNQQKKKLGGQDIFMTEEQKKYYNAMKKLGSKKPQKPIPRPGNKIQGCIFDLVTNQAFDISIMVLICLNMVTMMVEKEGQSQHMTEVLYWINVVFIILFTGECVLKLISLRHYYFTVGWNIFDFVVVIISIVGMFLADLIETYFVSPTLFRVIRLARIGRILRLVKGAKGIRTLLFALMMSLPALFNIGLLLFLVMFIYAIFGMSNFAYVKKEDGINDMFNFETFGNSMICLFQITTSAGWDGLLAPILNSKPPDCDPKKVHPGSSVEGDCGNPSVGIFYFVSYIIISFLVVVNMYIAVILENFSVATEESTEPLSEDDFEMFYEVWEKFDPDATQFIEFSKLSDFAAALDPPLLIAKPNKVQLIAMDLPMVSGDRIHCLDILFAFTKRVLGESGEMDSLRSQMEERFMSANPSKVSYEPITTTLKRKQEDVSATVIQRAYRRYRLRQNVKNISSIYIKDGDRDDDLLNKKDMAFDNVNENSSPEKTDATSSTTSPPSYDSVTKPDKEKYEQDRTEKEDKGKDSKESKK

| SMILES | IC50 [1] [µM] | IC50 [2] [µM] |
| --- | --- | --- |
| CCCOc1ccc(F)c(-c2cc(C)nc([C@H]3CC[C@@]4(CCN(C)C4=O)N3)c2)c1 [Example 196, (2R,5S)-2-[4-(2-Fluoro-5-propoxy-phenyl)-6-methyl-2-pyridyl]-7-methyl-1,7-diazaspiro[4.4]nonan-6-one hydrochloride] | 0.1 | 1.58 |
| CCOc1cc(F)cc(-c2cc(C)nc([C@H]3CC[C@@]4(CCN(C)C4=O)N3)c2)c1 [Example 197, (2R,5S)-2-[4-(3-Ethoxy-5-fluoro-phenyl)-6-methyl-2-pyridyl]-7-methyl-1,7-diazaspiro[4.4]nonan-6-one hydrochloride] | 5.01 | 50.1 |
| Cc1cc(-c2cc(OC(C)C)ccc2F)cc([C@H]2CC[C@@]3(CCN(C)C3=O)N2)n1 [Example 198, (2R,5S)-2-[4-(2-Fluoro-5-isopropoxy-phenyl)-6-methyl-2-pyridyl]-7-methyl-1,7-diazaspiro[4.4]nonan-6-one hydrochloride] | 5.01 | 63.1 |
| CCOc1cccc(-c2cc(C)nc([C@H]3CC[C@@]4(CCN(C)C4=O)N3)c2)c1F [Example 199, (2R,5S)-2-[4-(3-Ethoxy-2-fluoro-phenyl)-6-methyl-2-pyridyl]-7-methyl-1,7-diazaspiro[4.4]nonan-6-one hydrochloride] | 25.1 | 158 |
| Cc1cc(-c2cc(OC(F)(F)F)ccc2F)cc([C@H]2CC[C@@]3(CCN(C)C3=O)N2)n1 [Example 200, (2R,5S)-2-[4-[2-Fluoro-5-(trifluoromethoxy)phenyl]-6-methyl-2-pyridyl]-7-methyl-1,7-diazaspiro[4.4]nonan-6-one hydrochloride] | 2 | 31.6 |
| CCCOc1ccc(F)c(-c2cc(C)nc([C@@H]3CC[C@]4(CCN(C)C4=O)N3)c2)c1 [Example 201, (2S,5R)-2-[4-(2-Fluoro-5-propoxy-phenyl)-6-methyl-2-pyridyl]-7-methyl-1,7-diazaspiro[4.4]nonan-6-one hydrochloride] | 0.126 | 5.01 |
| CCOc1cc(-c2cc(C)nc([C@H]3CC[C@@]4(CCN(C)C4=O)N3)c2)c(F)cc1C [Example 202, (2R,5S)-2-[4-(5-Ethoxy-2-fluoro-4-methyl-phenyl)-6-methyl-2-pyridyl]-7-methyl-1,7-diazaspiro[4.4]nonan-6-one hydrochloride] | 3.16 | 31.6 |
| Cc1cc(-c2cc(N3CCCC3=O)ccc2F)cc([C@H]2CC[C@@]3(CCN(C)C3=O)N2)n1 [Example 203, (2R,5S)-2-[4-[2-Fluoro-5-(2-oxopyrrolidin-1-yl)phenyl]-6-methyl-2-pyridyl]-7-methyl-1,7-diazaspiro[4.4]nonan-6-one hydrochloride] | 251 | 2000 |

Second part, the compound after the results:

| IC50 [1] [µM] | IC50 [2] [µM] | SMILES |
| --- | --- | --- |
| 5.01 | 31.6 | CCc1ccc(F)c(-c2cc(C)nc([C@H]3CC[C@@]4(CCN(C)C4=O)N3)c2)c1 [Example 204, (2R,5S)-2-[4-(5-Ethyl-2-fluoro-phenyl)-6-methyl-2-pyridyl]-7-methyl-1,7-diazaspiro[4.4]nonan-6-one hydrochloride] |
| 6.31 | 63.1 | CCc1cccc(-c2cc(C)nc([C@H]3CC[C@@]4(CCN(C)C4=O)N3)c2)c1 [Example 205, (2R,5S)-2-[4-(3-Ethylphenyl)-6-methyl-2-pyridyl]-7-methyl-1,7-diazaspiro[4.4]nonan-6-one hydrochloride] |
| 10 | 63.1 | CCc1cccc(-c2cc(C)nc([C@H]3CC[C@@]4(CCN(C)C4=O)N3)c2)c1F [Example 206, (2R,5S)-2-[4-(3-Ethyl-2-fluoro-phenyl)-6-methyl-2-pyridyl]-7-methyl-1,7-diazaspiro[4.4]nonan-6-one hydrochloride] |
| 6.31 | 79.4 | CCOc1cccc(-c2cc(C)nc([C@H]3CC[C@@]4(CCN(C)C4=O)N3)c2)c1 [Example 207, (2R,5S)-2-[4-(3-Ethoxyphenyl)-6-methyl-2-pyridyl]-7-methyl-1,7-diazaspiro[4.4]nonan-6-one hydrochloride] |
